Measured values from PubChem BioAssay AID179 (DTP/NCI, 2004).
Where “and” joins values, the source holds several entries; their conditions need not be identical. Equal entries are not always repeated. Calls of active or inactive are those of the source.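 Rule for the calls: active = compounds giving half or more protection of infected cells from virus-caused growth loss, again on retest; inactive = the rest.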

System: CEM cells HIV-1 protection, formazan growth assay
Assay: NCI AIDS Antiviral Assay
Settings: for IC50: measured here: growth of uninfected CEM cells
Outline: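 Steps: treat uninfected and HIV-1-infected human CEM cells at five drug levels; quantify growth by soluble formazan; retest any compound reaching 50% protection; classify actives from the retest.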

## COc1c(Cl)cc(C(=CCCNC(=O)C[C@H]2CC[C@@]3(C)[C@@H](CC[C@@H]4[C@@H]3CC[C@]3(C)[C@@H](CC(=O)NCCC=C(c5cc(Cl)c(OC)c(C(=O)O)c5)c5cc(Cl)c(OC)c(C(=O)O)c5)CC[C@@H]43)C2)c2cc(Cl)c(OC)c(C(=O)O)c2)cc1C(=O)O
  EC50: > 200 µM
  IC50: 148 µM

## OC1CSCCCSCCSCCCSC1
  EC50: > 17.4 µM
  IC50: > 17.4 µM

## CO/C(=N\N=C(/c1ccccc1)C(F)(F)F)c1ccncc1
  EC50: > 200 µM
  IC50: 27.5 µM

## O/N=C1\CCc2cc3c(cc21)CCC3
  EC50: > 200 µM
  IC50: 155 µM

## CN[C@H]1CCc2cc(OC)c(OC)c(OC)c2-c2ccc(OC)c(=O)cc21
  outcome: inactive

## COc1ccc(Oc2nc3c(N)cc(C(F)(F)F)cc3nc2-c2ccccc2)cc1
  EC50: > 100 µM
  IC50: 34.7 µM

## CC1=C(c2cc(C(=O)Nc3ccc(Cl)c(Cl)c3)nc(N)n2)Sc2ccccc2N1
  EC50: > 81.3 µM
  IC50: > 81.3 µM

## Oc1ccc[n+](Cc2ccccc2)c1
  EC50: > 200 µM
  IC50: > 200 µM

## CC(C)=CC(=O)OC1C2C(C)=CC(=O)C(O)C2(C)C2C3(O)OCC24C(CC(=O)OC14)C(C)C3O (configuration not stated)
  EC50: > 0.2 µM
  IC50: 0.0112 µM

## NC(=O)CNC(=O)c1ccccc1SC(=O)CC[n+]1ccccc1
  EC50: > 200 µM
  IC50: 102 µM

## COc1ccc(N2C(=O)C3c4[nH]c5ccccc5c4C4CCCCCCCCCC4C3C2=O)cc1 (configuration not stated)
  EC50: > 200 µM
  IC50: > 200 µM

## Cc1ccc(NC2=CC(=O)C(NO)c3ccccc32)cc1 (configuration not stated)
  EC50: > 200 µM
  IC50: 3.89 µM

## O=C1C(NS(=O)(=O)c2ccccc2)=C(N(Cc2ccccc2)Cc2ccccc2)C(=O)c2ccccc21
  EC50: > 200 µM
  IC50: 72.4 µM

## O=C1Nc2nc3ccccc3n2N=C2CCCC12 (configuration not stated)
  outcome: inactive

## c1ccc(C2N=NN(c3ccccc3)C2N2CCCCC2)cc1 (configuration not stated)
  outcome: inactive

## O=C(O)CCSSCCCCS(=O)O
  EC50: > 200 µM
  IC50: 2.04 µM

## CC(=O)Nc1ccc([As](=O)(O)O)cc1[N+](=O)[O-]
  EC50: > 200 µM
  IC50: > 200 µM

## CC(C)(C)[Si](C)(C)OCC1OC(n2ccc(=O)[nH]c2=O)CC1(O)C/C=N/O (configuration not stated)
  EC50: > 200 µM
  IC50: 12.6 µM

## O=CC[C@H]1CCc2ccccc2C12CCC(=O)CC2
  EC50: > 74.1 µM
  IC50: > 74.1 µM

## CCOC(=O)C1CCC(=O)N1C(=O)c1ccccc1 (configuration not stated)
  EC50: > 200 µM
  IC50: > 200 µM

## Cc1nc2ccc(Br)cc2c(=O)n1-c1ccc(NC2OCC(O)C(O)C2O)cc1 (configuration not stated)
  EC50: > 200 µM
  IC50: 20.9 µM and 138 µM

## COC(=O)c1ccc(/C=C2\Oc3ccccc3C2=O)cc1
  EC50: > 200 µM
  IC50: > 200 µM

## COCC(C)(C)N=CN1CCc2cc(OC)c(OC)cc2C1
  EC50: > 813 µM
  IC50: > 813 µM

## COc1ccc2c(c1)c1c(n2CCN2CCOCC2)-c2cccc(OC)c2CC1
  outcome: inactive

## COc1ccc(C2c3cn[nH]c3CC3CCCCC32)cc1 (configuration not stated)
  EC50: > 200 µM
  IC50: 34.7 µM

## COC1=CC(=O)C(O)=C(CC2(C)C(C)CCC3(C)C2CCCC3(C)C)C1=O (configuration not stated)
  EC50: > 95.5 µM
  IC50: 6.46 µM

## O=c1[nH]c(=O)n(C2C=CC(CO)O2)cc1C(OCC(F)(F)F)OCC(F)(F)F (configuration not stated)
  EC50: > 141 µM
  IC50: 72.4 µM

## COc1cc(/C=C2\CC(C)C/C(=C\c3ccc(O)c(OC)c3)C2=O)ccc1O (configuration not stated)
  EC50: > 200 µM
  IC50: 3.39 µM

## CC(C)c1ccc(C(c2c(O)c3ccccc3oc2=O)c2c(O)c3ccccc3oc2=O)cc1
  EC50: > 200 µM
  IC50: 30.2 µM

## COC1=CC(=O)OC(/C=C(C)/C=C/C2=C(C)CCCC2(C)C)C1 (configuration not stated)
  outcome: inactive

## Cc1nc2n[nH]c(N)c2nc1C
  EC50: > 83.2 µM
  IC50: > 83.2 µM

## COc1ccc(C2C(Cl)C(=O)N2n2cnc3ccccc3c2=O)cc1OC (configuration not stated)
  EC50: > 339 µM
  IC50: 46.8 µM

## COC/C=C\[C@]1(O)CCCC[C@@H]1CC(OC)OC
  EC50: > 200 µM
  IC50: 30.9 µM

## COc1ccc2nc3cccc([N+](=O)[O-])c3c(NCCCCCC(=O)O)c2c1
  EC50: > 2 µM
  IC50: 0.302 µM

## O=C1OCCC1(Cc1ccc(Cl)cc1)Cc1ccc(Cl)cc1
  EC50: > 29.5 µM
  IC50: > 29.5 µM

## CC(=O)NCCC1CN(C(=O)/C=C/I)c2ccccc21 (configuration not stated)
  EC50: > 200 µM
  IC50: 1.1 µM

## Cc1cc(C)c(-n2[nH]c(=O)n(C)c2=O)c(C)c1
  EC50: > 200 µM
  IC50: > 200 µM

## CCn1c(N)c(N=O)c(=O)n(CC)c1=O
  EC50: > 200 µM
  IC50: > 200 µM

## CC(=O)c1ccc([Se][Se]c2ccc(C(C)=O)cc2)cc1
  EC50: > 18.2 µM
  IC50: 3.72 µM

## CC1(C)CCCCCC(C)(CCCCCCCCCCCO)C1=O (configuration not stated)
  EC50: > 200 µM
  IC50: 30.2 µM

## O=C1CC(C[C@H](O)C2CCCCC2O)CC(=O)N1Cc1ccccc1 (some centres not stated)
  EC50: > 200 µM
  IC50: > 200 µM

## CCCCc1ccc(Nc2ncc3[nH]cnc3n2)cc1
  EC50: > 200 µM
  IC50: 29.5 µM

## CN(C)c1ccc(S(=O)Nc2ccccc2)cc1 (configuration not stated)
  EC50: > 200 µM
  IC50: 85.1 µM

## O=C(NC(Nc1ccc(F)c(Cl)c1)(C(F)(F)F)C(F)(F)F)C(C(F)(F)F)C(F)(F)F
  EC50: > 200 µM
